For experiment [1], the system named is anxiety. To be noted: cited from earlier work; for efficacy in the treatment of anxiety neuroses (in words): clinical, compared with diazepam.
Experiment [2] has as its target T1, 5-HT1A receptor (Rattus norvegicus, UniProt P19327).
T1 sequence (P19327 1-422): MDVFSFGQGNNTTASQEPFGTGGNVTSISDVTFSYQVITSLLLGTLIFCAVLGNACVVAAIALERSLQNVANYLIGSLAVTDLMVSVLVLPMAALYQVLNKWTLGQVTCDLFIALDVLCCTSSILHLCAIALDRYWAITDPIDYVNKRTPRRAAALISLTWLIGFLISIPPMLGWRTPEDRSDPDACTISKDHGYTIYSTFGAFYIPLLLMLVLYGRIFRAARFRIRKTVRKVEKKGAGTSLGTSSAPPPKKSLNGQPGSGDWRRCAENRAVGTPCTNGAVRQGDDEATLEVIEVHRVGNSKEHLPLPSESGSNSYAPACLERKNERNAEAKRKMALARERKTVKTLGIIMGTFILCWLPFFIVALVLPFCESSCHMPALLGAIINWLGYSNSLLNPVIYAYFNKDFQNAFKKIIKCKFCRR
To be noted: for inhibition at 1 µM: pH 7.7, read-out: % Inhibition at 1 μM, 5-HT1A Receptor Binding.
Description: The assay is carried out as follows:
Hippocampal tissue from male Sprague Dawley rats is dissected and homogenized on ice in 40 volumes of buffer A (50 mM Tris-HCl, pH=7.7) using a Polytron homogenizer at setting 5 for 3×15-second bursts. The homogenate is then centrifuged at 20,000 rpm (RC5-B; 50,000 g), and the supernatant is discarded. The pellet is resuspended in 40 volumes of the same buffer and incubated at 37° C. for 10 minutes to aid in the removal of endogenous serotonin. The homogenate is then centrifuged (as above) and the supernatant discarded. The pellet is then resuspended in 100 volumes of buffer B (50 mM Tris HCl, pH=7.7 containing 0.1% ascorbate, 10 μM pargyline and 4 mM CaCl2) and sonicated. An aliquot is taken for protein determination by the Lowry method and the remainder stored frozen at -70° C. until used.
At the end of the incubation, 3 mL of cold buffer A are added to each tube, and the contents rapidly filtered through Whatman GF/B glass-fiber filters. The filters are then rapidly washed 2 times with 3 mL of the same buffer, placed in scintillation vials, and shaken for 15 minutes with 10 mL of Hydrofluor (National Diagnostics) scintillation cocktail. The vials are then counted in a Packard 460CD scintillation counter.
Specific binding is defined as total binding less binding in the presence of excess unlabeled serotonin (1 μM). Binding in the presence of various concentrations of test drug is expressed as a percent of specific binding when no drug is present. […] Ki (inhibition constant) for the test drug is then calculated by the formula: [formula]

Experiment [3] deals with 5-HT1A receptors. To be noted: compared with buspirone; cited from earlier work.

With `Cc1nc2sccn2c(=O)c1CCN1CCC(=C(c2ccc(F)cc2)c2ccc(F)cc2)CC1` [ritanserin], in experiment [1], the “efficacy in the treatment of anxiety neuroses (in words)” value is “comparable to the benzodiazepine diazepam”.

With `O=C1CC2(CCCC2)CC(=O)N1CCCCN1CCN(c2ncccn2)CC1` [Buspirone], the inhibition at 1 µM in experiment [2] worked out at 94%.

With `O=C1c2ccccc2S(=O)(=O)N1CCCCN1CCN(c2ncccn2)CC1` [ipsapirone], the “anxiolytic activity in clinical trials (in words)” value in experiment [1] is recorded as “potent anxiolytic drugs”. Moreover, in experiment [3], the “selectivity for 5-HT1A receptors relative to buspirone (in words)” value is listed as “higher degree of selectivity for 5-HT1A receptors than buspirone”.

Take `CC1(C)CC(=O)N(CCCCN2CCN(c3ncccn3)CC2)C(=O)C1` [Gepirone, 4,4-dimethyl-1-[4-[4-(2-pyrimidinyl)-1-piperazinyl]butyl]-2,6-piperidinedione]: in experiment [1], the “anxiolytic activity in clinical trials (in words)” value is “potent anxiolytic drugs” and the “efficacy in the treatment of anxiety neuroses (in words)” value is “comparable to the benzodiazepine diazepam”.

With `O=C1c2ccccc2S(=O)(=O)N1CCCCN1CCN(c2nccc3ccncc23)CC1` [Example 1, 2-[4-[4-(2,7-Naphthyridin-1-yl)-1-piperazinyl]butyl]-1,2-benzoisothiazol-3(2H)-one 1,1-Dioxide], the “affinity for the 5-HT1A receptor site (in words)” value in experiment [2] (conclusion from Table 1) was “high affinity”. In addition, the inhibition at 1 µM in experiment [2] is 100%.

For orientation: inhibition means how much of the control response was suppressed.

The record behind these values is patent publication US4859671A, “2-substituted 1,2-benzisothiazol-3(2H)-one 1,1-dioxide useful as an anxiolytic agent” (American Home Products Corporation, priority 1988, dated 1989).
